Values of other authors in patent US20210106004A1, “THERMOPLASTIC MATERIALS HAVING BENEFICIAL PROPERTIES AND PROCESSES FOR PROVIDING THE SAME” (QuadSil, Inc., priority 2016, published 2021).

Details: background statement

SMILES: CCCCCCCCCCCCCCCCCC[N+](C)(C)CCC[Si](OC)(OC)OC.[Cl-] [3-(trimethoxysilyl) propyldimethyloctadecyl ammonium chloride]
- temperature at which thermal decomposition begins: 125 °C
